Measured values published in patent US20200239832A1, “TOLERANCE OF MICROBIAL CELLS AGAINST ORTHO-AMINOBENZOATE IN PRESENCE OF ALKALI IONS AT NEUTRAL PH” (priority 2017, published 2020).

Assays:
Format in all cases: cell-based, Corynebacterium glutamicum
[1] = system: C. glutamicum strain derived from ATCC 13032 by evolutionary engineering; assay: Comparison of metabolic activity after NH4-oAB and Na-oAB addition, batch cultivation in 1 L bioreactors (Example 2); conditions: 40 mL of 500 g/L oAB stock solution at pH 7 added after 7 h and 24 h; FIG. 2
Protocol: (§1) FIG. 2: Influence of Na-oAB and NH4-oAB addition on oAB resistance during batch cultivation in 1 L scale with C. glutamicum ATCC 13032. Filled symbols: addition of 40 mL of 500 a oAB stock solution (oAB dissolved with NaOH at pH 7) after 7 h and 24 h. Open symbols: addition of 40 mL of 500 g/L oAB stock solution (oAB dissolved with NH4OH at pH 7) after 7 h and 24 h. Both bioreactors: addition of 36 g/L glucose (added as stock solution) after 7.5 h and 24.5 h to prevent a glucose limitation. Initial cultivation volume VL=1 L, temperature 30° C., pH=7 controlled with NH4OH (10 w % NH3), gassing rate with air=0.2 L/min, pO2 controlled at 30% air saturation by adjusting the stirrer speed between 200 and 1200 rpm.
A C. glutamicum strain derived from ATCC 13032 was used to compare the metabolic activity after NH4-oAB and Na-oAB addition during the cultivation. This strain was derived from Corynebacterium glutamicum ATCC 13032 by evolutionary engineering in order to increase its resistance against oAB.
It was not further genetically modified. Thus it was not capable of oAB-production. For this purpose, two 1 L bioreactors were filled with sterile cultivation medium including the following initial concentrations: 20 g/L glucose, 5 g/L (NH4)2SO4, 1 g/L KH2PO4, 1 g/L K2HPO4, 0.25 g/L MgSO4.7 H2O, 0.01 g/L CaCl2.2 H2O, 2 mg/L biotin (vitamin B7), 0.03 g/L protocatechuic acid (3,4-Dihydroxybenzoic acid), 0.01 g/L MnSO4.H2O, 0.01 g/L FeSO4.7H2O, 1 mg/L ZnSO4.7H2O, 0.2 mg/L CuSO4.5H2O and 0.02 mg/L NiCl2.6H2O.
(§2) The preculture medium for the cultivation in shake flasks contained additionally 42 g/L MOPS buffer, 3.7 g/L brain heart infusion broth, 5 g/L urea (CH4N2O) and 20 a (NH4)2SO4 (instead of 5 g/L). The preculture was cultivated in 300 mL shake flasks with a liquid volume of 25 mL at a temperatur of 28° C. and a shaking frequency of 180 rpm until OD600>20 was reached.

[2] = system: C. glutamicum ATCC 13032; assay: Comparison of metabolic activity after NH4-oAB and Na-oAB addition, batch cultivation in 1 L bioreactors (Example 3); conditions: for biomass accumulation after oAB addition: 40 mL of 500 g/L oAB stock solution at pH 7 added after 6.4 h and 23.6 h, FIG. 3
Protocol: as §1, with “FIG. 3:” for “FIG. 2:”, “500 g/L” for “500 a”, “after 6.4” for “after 7”, “and 23.6” for “and 24”, “h.” for “h. Both bioreactors: addition of 36 g/L glucose (added as stock solution) after 7.5 h and 24.5 h to prevent a glucose limitation.”
The influence of NH4 was tested with C. glutamicum ATCC 13032 (without further genetic modifications, not modified by evolutionary engineering) using two 1 L bioreactors filled with sterile cultivation medium including the following initial concentrations: […], 5 g/L (NH4)2SO4, 1 g/L KH2PO4, 1 g/L K2HPO4, 0.25 g/L MgSO4.7 H2O, 0.01 g/L CaCl2.2 H2O, 2 mg/L biotin (vitamin B7), 0.03 g/L protocatechuic acid (3,4-Dihydroxybenzoic acid), 0.01 g/L MnSO4.H2O, 0.01 g/L FeSO4.7H2O, 1 mg/L ZnSO4.7H2O, 0.2 mg/L CuSO4.5H2O and 0.02 mg/L NiCl2.6H2O.
as §2, with “20 g/L” for “20 a”
During the fermentation the temperature was controlled at 30° C. and pH was kept constant at pH=7 by adding aqueous NH4OH solution (10 w % NH3). The gassing rate was adjusted to 0.2 L/min air and the dissolved oxygen tension was controlled at 30% air saturation by adjusting the stirrer speed between 200 rpm and 1200 rpm.
40 mL of a 500 g/L oAB stock solution (oAB dissolved with NaOH at pH 7) was added to reactor 1 after 6.4 h and 23.6 h (filled symbols) and 40 mL of a 500 g/L oAB stock solution (oAB dissolved with NH4OH at pH 7) was added after 6.4 h and 23.6 h to reactor 2 (open symbols)
From this it follows that the toxicity of oAB on C. glutamicum ATCC 13032 in presence of high Na+ concentrations is reduced compared to the toxicity in presence of high NH4^+ concentrations.

[3] = system: modified C. glutamicum production strain; assay: Evaluation of the maximum tolerable oAB concentration, batch cultivation in 1 L bioreactor
Protocol: FIG. 1: Evaluation of the maximum tolerable oAB concentration during batch cultivation in a 1 L lab-scale bioreactor with a modified C. glutamicum production strain. Addition of 20 mL of a 500 g/L oAB stock solution (oAB dissolved with NaOH at pH 7) after 23 h and 39 h, 48 h (two times), 64 h (two times) and 71 h (two times) and addition of glucose solution after 40 h, 48 h, 63 h, 65 and 71.5 h to prevent a glucose limitation. Initial cultivation volume VL=1 L, temperature 30° C., pH=7 controlled by adding NH4OH (10 w % NH3) during cultivation, gassing rate with air=0.2 L/min, pO2 controlled at 30% air saturation by adjusting the stirrer speed between 200 and 1200 rpm.
The maximum tolerable oAB concentration in the presence of sodium ions in the medium was tested with a modified C. glutamicum production strain. This strain was derived from Corynebacterium glutamicum ATCC 13032 by evolutionary engineering in order to increase its resistance against oAB.
This strain was then genetically modified to make it capable of oAB-production. […]

[4] = according to FIG. 3, NH4+ as counter ion

Row | Compound | OTR signal after oAB addition [1] | biomass concentration after oAB addition [1] | biomass accumulation after oAB addition [2] | o-aminobenzoate concentration above which the metabolic activity of bacterial cells (OTR) is limited [2, 4] | o-aminobenzoate concentration at which cell growth (dry weight) stops [2, 4] [g/L] | oAB concentration at which growth (increase in biomass concentration) was still observed ([3]; oAB added stepwise as sodium salt (dissolved with NaOH at pH 7), pH 7 controlled with NH4OH, 30° C.) [g/L] | oAB concentration resulting in a decrease of the metabolic activity (declining OTR signal) and no further increase in biomass ([3]; oAB increased from 80 g/L to 100 g/L after 71 h, added as sodium salt, pH 7, 30° C.) [g/L]
1 | N.Nc1ccccc1C(=O)O [NH4-oAB] | constant OTR signal | reduced biomass accumulation | growth inhibition after 24 h | more than 25 g/L | > 50 | – | –
2 | Nc1ccccc1C(=O)[O-].[Na+] [Na-oAB] | continued to increase | continued to increase | biomass accumulation continued | – | – | – | –
3 | Nc1ccccc1C(=O)O [oAB, 2-aminobenzoic acid] | – | – | – | – | – | 80 | 100
